This note sets out measurements from ChEMBL document CHEMBL1146272, “Isoindolone derivatives, a new class of 5-HT2C antagonists: synthesis and biological evaluation” (Bioorg Med Chem Lett, 2007).

Activity calls are given as the source filed them. No cut-off for these calls is given here.

The target of experiment [1] is T1, 5-hydroxytryptamine receptor 2C (Homo sapiens, UniProt P28335).
T1 sequence (P28335 whole entry): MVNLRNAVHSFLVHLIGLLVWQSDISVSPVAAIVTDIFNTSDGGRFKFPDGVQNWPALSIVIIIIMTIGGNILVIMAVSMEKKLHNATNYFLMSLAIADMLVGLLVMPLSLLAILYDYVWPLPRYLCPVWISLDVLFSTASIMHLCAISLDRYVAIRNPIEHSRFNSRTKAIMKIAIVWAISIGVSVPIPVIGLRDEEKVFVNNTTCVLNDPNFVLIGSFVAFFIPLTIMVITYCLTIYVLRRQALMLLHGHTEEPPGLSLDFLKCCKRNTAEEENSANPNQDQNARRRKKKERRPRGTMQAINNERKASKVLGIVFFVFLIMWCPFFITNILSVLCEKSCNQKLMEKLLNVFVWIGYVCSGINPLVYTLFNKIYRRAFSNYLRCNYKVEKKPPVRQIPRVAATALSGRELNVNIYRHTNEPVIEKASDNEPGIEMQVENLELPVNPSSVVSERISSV
The experiment in a line: Displacement of [3H]mesulergine from 5HT2C receptor expressed in HEK293 cells. It is filed as cell-based.

Experiment [2] addresses T2, 5-hydroxytryptamine receptor 2A (Homo sapiens, UniProt P28223). As to the kind of experiment: Displacement of [3H]ketanserin from 5HT2A receptor expressed in HEK293 cells. The experiment is classed as cell-based. (Loss of bound radioactivity is the signal in a displacement assay; it reports binding, not function.)
Experiment [3] addresses T3, 5-hydroxytryptamine receptor 2B (Homo sapiens, UniProt P41595). The experiment in a line: Displacement of [3H]5-HT from 5HT2B receptor expressed in HEK293 cells. The experiment is classed as cell-based.
Experiment [4] addresses T3, 5-hydroxytryptamine receptor 2B. As to the kind of experiment: Agonist activity at 5HT2B receptor expressed in HEK293 cells assessed as intracellular calcium mobilisation up to 10 uM. The experiment is classed as functional, cell-based.
The target in experiment [5] is T2, 5-hydroxytryptamine receptor 2A. As to the kind of experiment: Agonist activity at 5HT2A receptor expressed in HEK293 cells assessed as intracellular calcium mobilisation up to 10 uM. The experiment is classed as functional, cell-based. On the technique in general: A change in cytosolic calcium serves as a functional read-out for many receptors and channels.
In experiment [6] the target is T4, 5-hydroxytryptamine receptor 2C (Homo sapiens) (UniProt P28335).
T4 sequence (whole entry): T1 sequence (P28335 whole entry)
As to the kind of experiment: Agonist activity at 5HT2C receptor expressed in HEK293 cells assessed as intracellular calcium mobilisation up to 10 uM. The experiment is classed as functional, cell-based.

T3 sequence (P41595 whole entry): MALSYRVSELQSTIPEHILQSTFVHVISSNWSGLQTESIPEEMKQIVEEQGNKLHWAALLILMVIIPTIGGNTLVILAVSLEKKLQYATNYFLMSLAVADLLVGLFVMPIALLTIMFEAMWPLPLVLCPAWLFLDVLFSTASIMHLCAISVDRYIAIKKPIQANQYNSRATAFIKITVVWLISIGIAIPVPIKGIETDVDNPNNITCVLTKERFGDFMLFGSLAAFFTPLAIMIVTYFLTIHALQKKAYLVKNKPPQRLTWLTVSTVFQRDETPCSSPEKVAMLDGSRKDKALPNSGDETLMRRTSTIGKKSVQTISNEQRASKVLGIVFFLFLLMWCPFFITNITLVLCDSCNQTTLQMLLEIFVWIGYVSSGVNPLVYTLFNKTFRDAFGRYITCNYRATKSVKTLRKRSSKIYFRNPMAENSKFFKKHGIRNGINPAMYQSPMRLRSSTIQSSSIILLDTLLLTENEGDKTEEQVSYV
T2 sequence (P28223 whole entry): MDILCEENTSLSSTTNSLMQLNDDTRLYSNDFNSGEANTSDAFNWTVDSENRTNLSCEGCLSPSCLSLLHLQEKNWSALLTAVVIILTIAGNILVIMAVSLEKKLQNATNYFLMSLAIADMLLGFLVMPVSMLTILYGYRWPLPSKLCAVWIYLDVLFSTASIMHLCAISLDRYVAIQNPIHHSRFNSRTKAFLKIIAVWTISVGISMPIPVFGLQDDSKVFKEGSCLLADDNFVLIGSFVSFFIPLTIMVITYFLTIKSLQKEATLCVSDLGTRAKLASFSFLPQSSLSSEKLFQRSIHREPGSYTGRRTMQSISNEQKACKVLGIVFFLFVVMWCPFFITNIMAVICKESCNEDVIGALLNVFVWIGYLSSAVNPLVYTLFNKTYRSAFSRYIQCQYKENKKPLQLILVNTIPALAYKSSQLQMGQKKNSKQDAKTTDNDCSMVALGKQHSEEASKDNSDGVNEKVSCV

A word on the Ki: it is a dissociation constant, usually derived from enzyme kinetics or from competition with a known ligand. For the molecule `COc1ccc(N2Cc3cc(Cl)cc(Cl)c3C2=O)cc1OCCN1CCCCCC1`, the Ki was 2.51 nM in experiment [1], 631 nM in experiment [2] and 200 nM in experiment [3]. Besides, the outcome in experiment [4], in experiment [5] and in experiment [6] was inactive.

`COc1ccc(N2Cc3cc(C)cc(C)c3C2=N)cc1OCCN1CCC(C)CC1`: the Ki in experiment [1] was 126 nM; in experiment [2], greater than 3980 nM; in experiment [3] it was greater than 3160 nM. Moreover, the outcome in experiment [4], in experiment [5] and in experiment [6] was inactive.

With `COc1ccc(N2Cc3c(F)c(F)cc(Cl)c3C2=O)cc1OCCN1CCC(C)CC1`, the results for the Ki in experiment [1], in experiment [2] and in experiment [3] were 2 nM, 501 nM and 126 nM, respectively. The outcome in experiment [4], in experiment [5] and in experiment [6] was inactive.

On to `COc1ccc(N2Cc3cccc(C(F)(F)F)c3C2=O)cc1OCCN1CCC(C)CC1`, for which the figures for the Ki in experiment [1], in experiment [2] and in experiment [3] were 1.58 nM, 631 nM and 501 nM, respectively. The outcome in experiment [4], in experiment [5] and in experiment [6] was inactive.

With `COc1ccc(N2Cc3cccc(F)c3C2=O)cc1OCCN1CCCCC1`, the values for the Ki in experiment [1], in experiment [2] and in experiment [3] were 79.4 nM, greater than 10000 nM and greater than 3160 nM, respectively. Also, the outcome in experiment [4], in experiment [5] and in experiment [6] was inactive.

In the case of `COc1ccc(N2Cc3cc(F)cc(C(F)(F)F)c3C2=O)cc1OCCN1CCC(C)CC1`, the Ki was 0.398 nM in experiment [1], 251 nM in experiment [2] and 251 nM in experiment [3]. In addition, the result in experiment [4], in experiment [5] and in experiment [6] was inactive.

With `COc1ccc(N2Cc3cc(Cl)cc(Cl)c3C2=O)cc1OCCN1CCC(C)(C)CC1`, the Ki was 2 nM in experiment [1], 398 nM in experiment [2] and 251 nM in experiment [3]. Moreover, the result in experiment [4], in experiment [5] and in experiment [6] was inactive.

Turning to `COc1ccc(N2Cc3cc(Cl)cc(Cl)c3C2=O)cc1OCCN1CCOCC1`, the Ki in experiment [1] is 12.6 nM; in experiment [2], greater than 7940 nM; in experiment [3], greater than 1000 nM. Besides, the outcome in experiment [4], in experiment [5] and in experiment [6] was inactive.

As to `COc1ccc(N2Cc3ccc(Cl)cc3C2=O)cc1OCCN1CCC(C)CC1`, the Ki in experiment [1] was 20 nM; in experiment [2], 794 nM; in experiment [3], greater than 1000 nM. Also, the outcome in experiment [4], in experiment [5] and in experiment [6] was inactive.

Regarding `COc1ccc(N2Cc3c(Cl)cccc3C2=O)cc1OCCN1CCC(C)CC1`, the Ki in experiment [1] was 126 nM; in experiment [2], greater than 1580 nM. The Log Ki in experiment [3] (hek293) is greater than -6.7. The outcome in experiment [4], in experiment [5] and in experiment [6] was inactive.

As for `COc1ccc(N2Cc3ccccc3C2=O)cc1OCCN1CCCCC1`, the Ki in experiment [1] is 50.1 nM; in experiment [2] it was greater than 10000 nM; in experiment [3], greater than 1580 nM. Besides, the result in experiment [4], in experiment [5] and in experiment [6] was inactive.

As for `COc1ccc(N2Cc3cccc(C)c3C2=O)cc1OCCN1CCC(C)CC1`, the Ki in experiment [1] was 2.51 nM; in experiment [2] it was greater than 6310 nM; in experiment [3], 200 nM. The result in experiment [4], in experiment [5] and in experiment [6] was inactive.

In the case of `COc1ccc(N2Cc3cccc(C#N)c3C2=O)cc1OCCN1CCC(C)CC1`, the Ki in experiment [1] was 10 nM; in experiment [2] it was greater than 3160 nM; in experiment [3], greater than 794 nM. Further, the result in experiment [4], in experiment [5] and in experiment [6] was inactive.

Turning to `COc1ccc(N2Cc3ccc(Cl)c(Cl)c3C2=O)cc1OCCN1CCC(C)CC1`, the inhibition constant Ki was 1 nM in experiment [1], 501 nM in experiment [2] and 100 nM in experiment [3]. For the same molecule, the outcome in experiment [4], in experiment [5] and in experiment [6] was inactive.

For `COc1ccc(N2Cc3cccc(OC)c3C2=O)cc1OCCN1CCCCC1`, the Ki in experiment [1] is 200 nM; in experiment [2], greater than 6310 nM; in experiment [3] it was greater than 7940 nM. The outcome in experiment [4], in experiment [5] and in experiment [6] was inactive.

With `COc1ccc(N2Cc3cc(Cl)cc(Cl)c3C2=O)cc1OCCN1[C@H](C)CCC[C@@H]1C`, the inhibition constant Ki in experiment [1] is 6.31 nM; in experiment [2], 316 nM; in experiment [3] it was 126 nM. The result in experiment [4], in experiment [5] and in experiment [6] was inactive.

`COc1ccc(N2Cc3cccc(Cl)c3C2=O)cc1OCCN1CCCCC1`: the Ki in experiment [1] was 3.98 nM; in experiment [2], 1000 nM; in experiment [3], 316 nM. For the same molecule, the result in experiment [4], in experiment [5] and in experiment [6] was inactive.

Regarding `COc1ccc(N2Cc3cc(Cl)cc(Cl)c3C2=O)cc1OCCN1CCCC(C)C1` (centres undefined), the Ki in experiment [1] is 2.51 nM; in experiment [2] it was greater than 1260 nM; in experiment [3], 126 nM. For the same molecule, the outcome in experiment [4], in experiment [5] and in experiment [6] was inactive.

Consider `COc1ccc(N2Cc3cc(Cl)cc(Cl)c3C2=O)cc1OCCN1CCCCC1C` (centres undefined), for which the Ki in experiment [1] is 10 nM; in experiment [2], greater than 3980 nM; in experiment [3], greater than 2510 nM. The outcome in experiment [4], in experiment [5] and in experiment [6] was inactive.

With `COc1ccc(N2Cc3c(c4cc(Cl)ccc4n3C)C2=O)cc1OCCN1CCC(C)CC1`, the result in experiment [4], in experiment [5] and in experiment [6] was inactive.

As for `COc1ccc(N2CC=C(c3ccc(Cl)c(Cl)c3)C2=O)cc1OCCN1CCC(C)CC1`, the outcome in experiment [4], in experiment [5] and in experiment [6] was inactive.

As to `COc1ccc(N2Cc3cc(Cl)ccc3C2=O)cc1OCCN1CCC(C)CC1`, the inhibition constant Ki in experiment [1] was 25.1 nM; in experiment [2], greater than 1000 nM; in experiment [3], greater than 1000 nM. In addition, the result in experiment [4], in experiment [5] and in experiment [6] was inactive.

Turning to `CCOC(=O)c1ccc(N2Cc3ccccc3C2=O)cc1OCCN(CC)CC`, the outcome in experiment [4], in experiment [5] and in experiment [6] was inactive.
